# Data from the supplement of paper PMC10307832.
# Compound: CN1CCC(CC1)OC2=CC(=C(C=C2)NC3=NC=C4C(=N3)N(C(=O)N4C)C5CCCC5)OC [AZ3146] + NC(=O)Nc1cc(-c2cccc(F)c2)sc1C(=O)N[C@H]1CCCNC1 [AZD7762] (partner 0.2 µM)
# Test: relative viability (nuclei count vs DMSO), 5 days (fraction); higher = more cells survive
# Conditions: first compound 8 µM
# Summary of the method: (§1)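 Relative viability divides the nuclei count in treated wells by that in vehicle wells. Lung cancer cell lines were seeded in 1536-well plates, dosed by pin tool the next day, and fixed and stained after 5 days in one step with final 0.05% Triton X-100, 1% formaldehyde and 1 ug/ml Hoechst. Dosing was a single drug or a fixed anchor-drug dose plus five library-drug doses (not always all listed) in √10 steps, and values are medians of duplicate plates imaged at 4×.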
row,Cell Line,relative viability
1,NCI-H1975,0.638

# Compound: CN1CCC(CC1)OC2=CC(=C(C=C2)NC3=NC=C4C(=N3)N(C(=O)N4C)C5CCCC5)OC [AZ3146] + CS(=O)(=O)N1CCN(Cc2cc3nc(-c4cccc5[nH]ncc45)nc(N4CCOCC4)c3s2)CC1 [Pictilisib] (partner 1 µM)
# Test: as above
# Conditions: first compound 0.08 µM
# Summary of the method: as §1
row,Cell Line,relative viability
1,HARA,0.264
2,LCLC-103H,0.548
3,LXF-289,0.693
4,NCI-H358,0.355
5,NCI-H322M,0.585
6,LC-2-ad,0.398
7,HCC-827,0.965
8,HCC-15,0.721
9,HOP-62,0.561
10,NCI-H460,0.293
11,LU99A,0.318
12,NCI-H2085,0.486
13,A-427,0.826
14,NCI-H838,0.557
15,NCI-H1792,0.211
16,NCI-H596,0.361
17,NCI-H3122,0.613
18,NCI-H1395,0.536
19,201T,0.634
20,NCI-H1993,0.806
21,NCI-H1355,0.334
22,NCI-H2405,0.533
23,NCI-H1437,0.432
24,H3255,0.514
25,NCI-H2347,0.604
26,NCI-H1975,0.266

# Same assay, conditions: first compound 0.253 µM
row,Cell Line,relative viability
1,HARA,0.537
2,LCLC-103H,0.672
3,LXF-289,0.776
4,NCI-H358,0.39
5,NCI-H322M,0.478
6,LC-2-ad,0.483
7,HCC-827,0.971
8,HCC-15,0.773
9,HOP-62,0.719
10,NCI-H460,0.323
11,LU99A,0.351
12,NCI-H2085,0.433
13,A-427,0.626
14,NCI-H838,0.467
15,NCI-H1792,0.238
16,NCI-H596,0.374
17,NCI-H3122,0.614
18,BEN,0.51
19,NCI-H1395,0.628
20,201T,0.643
21,NCI-H1993,0.797
22,NCI-H1355,0.452
23,NCI-H1437,0.376
24,H3255,0.49
25,NCI-H2347,0.542
26,NCI-H1975,0.343

# Same assay, conditions: first compound 0.8 µM
row,Cell Line,relative viability
1,HARA,0.387
2,LCLC-103H,0.557
3,LXF-289,0.779
4,NCI-H358,0.394
5,NCI-H322M,0.439
6,LC-2-ad,0.425
7,HCC-827,0.987
8,HCC-15,0.765
9,HOP-62,0.627
10,NCI-H460,0.297
11,LU99A,0.32
12,NCI-H2085,0.506
13,A-427,0.65
14,NCI-H838,0.39
15,NCI-H1792,0.32
16,NCI-H596,0.413
17,NCI-H3122,0.555
18,BEN,0.403
19,NCI-H1395,0.539
20,201T,0.656
21,NCI-H1993,0.788
22,NCI-H1355,0.525
23,NCI-H2405,0.418
24,NCI-H1437,0.45
25,H3255,0.466
26,NCI-H2347,0.654
27,NCI-H1975,0.305

# Same assay, conditions: first compound 2.53 µM
row,Cell Line,relative viability
1,HARA,0.594
2,LCLC-103H,0.492
3,LXF-289,0.824
4,NCI-H358,0.398
5,NCI-H322M,0.491
6,LC-2-ad,0.579
7,HCC-827,1.2
8,HCC-15,0.737
9,HOP-62,0.895
10,NCI-H460,0.416
11,LU99A,0.376
12,NCI-H2085,0.547
13,A-427,0.519
14,NCI-H838,0.387
15,NCI-H1792,0.339
16,NCI-H596,0.302
17,NCI-H3122,0.639
18,BEN,0.533
19,NCI-H1395,0.623
20,201T,0.707
21,NCI-H1993,0.839
22,NCI-H1355,0.467
23,NCI-H2405,0.451
24,NCI-H1437,0.393
25,H3255,0.507
26,NCI-H2347,1.12
27,NCI-H1975,0.303

# Same assay, conditions: first compound 8 µM
row,Cell Line,relative viability
1,HARA,0.244
2,LCLC-103H,0.555
3,LXF-289,0.642
4,NCI-H358,0.326
5,NCI-H322M,0.512
6,LC-2-ad,0.41
7,HCC-827,0.928
8,HCC-15,0.728
9,HOP-62,0.548
10,NCI-H460,0.461
11,LU99A,0.351
12,NCI-H2085,0.438
13,A-427,0.675
14,NCI-H838,0.266
15,NCI-H1792,0.285
16,NCI-H596,0.41
17,NCI-H3122,0.684
18,BEN,0.573
19,NCI-H1395,0.726
20,201T,0.596
21,NCI-H1993,0.762
22,NCI-H1355,0.512
23,NCI-H2405,0.58
24,NCI-H1437,0.461
25,H3255,0.518
26,NCI-H2347,0.422
27,NCI-H1975,0.304

# Compound: CCOC(=O)CCNc1cc(N2CCc3ccccc3CC2)nc(-c2ccccn2)n1 [GSK-J4] + O=C(c1cc(Cc2n[nH]c(=O)c3ccccc23)ccc1F)N1CCN(C(=O)C2CC2)CC1 [Olaparib] (partner 8 µM)
# Test: as above
# Conditions: first compound 0.5 µM
# Summary of the method: as §1
row,Cell Line,relative viability
1,HARA,0.767
2,LCLC-103H,0.8
3,LXF-289,1.03
4,NCI-H358,0.574
5,NCI-H322M,0.829
6,LC-2-ad,0.69
7,HCC-827,0.622
8,HCC-15,0.702
9,HOP-62,0.394
10,NCI-H460,0.384
11,LU99A,0.248
12,NCI-H2085,0.773
13,A-427,0.714
14,NCI-H838,0.696
15,NCI-H1792,0.45
16,NCI-H596,0.668
17,NCI-H3122,0.539
18,BEN,1.18
19,NCI-H1395,0.435
20,201T,0.81
21,NCI-H1993,1.21
22,NCI-H1355,0.732
23,NCI-H2405,0.849
24,NCI-H1437,0.587
25,H3255,0.553
26,NCI-H2347,0.587
27,NCI-H1975,0.729

# Same assay, conditions: first compound 1.581 µM
row,Cell Line,relative viability
1,HARA,0.761
2,LCLC-103H,0.685
3,LXF-289,1.01
4,NCI-H322M,0.729
5,LC-2-ad,0.643
6,HCC-827,0.65
7,HCC-15,0.632
8,HOP-62,0.333
9,LU99A,0.265
10,NCI-H2085,0.734
11,A-427,0.701
12,NCI-H838,0.653
13,NCI-H1792,0.286
14,NCI-H596,0.726
15,NCI-H3122,0.578
16,BEN,0.99
17,NCI-H1395,0.48
18,201T,0.581
19,NCI-H1993,0.885
20,NCI-H1355,0.672
21,NCI-H2405,0.836
22,NCI-H1437,0.596
23,H3255,0.521
24,NCI-H2347,0.597
25,NCI-H1975,0.715

# Same assay, conditions: first compound 5 µM
row,Cell Line,relative viability
1,LCLC-103H,0.776
2,LXF-289,1.14
3,NCI-H358,0.646
4,NCI-H322M,0.935
5,LC-2-ad,0.672
6,HCC-827,0.767
7,HCC-15,0.644
8,HOP-62,0.426
9,NCI-H2085,0.654
10,NCI-H838,0.514
11,NCI-H1792,0.309
12,NCI-H596,0.734
13,NCI-H3122,0.668
14,BEN,0.776
15,NCI-H1395,0.399
16,201T,0.831
17,NCI-H1993,1.1
18,NCI-H1355,0.762
19,NCI-H1437,0.601
20,H3255,0.523
21,NCI-H2347,0.554
22,NCI-H1975,0.579

# Same assay, conditions: first compound 15.81 µM
row,Cell Line,relative viability
1,HARA,0.888
2,LCLC-103H,0.654
3,LXF-289,0.991
4,NCI-H358,0.521
5,NCI-H322M,0.782
6,LC-2-ad,0.701
7,HCC-827,0.589
8,HCC-15,0.644
9,HOP-62,0.491
10,NCI-H460,0.433
11,LU99A,0.207
12,NCI-H2085,0.707
13,A-427,0.66
14,NCI-H838,0.568
15,NCI-H1792,0.429
16,NCI-H596,0.738
17,NCI-H3122,0.575
18,BEN,0.954
19,NCI-H1395,0.45
20,201T,0.797
21,NCI-H1993,0.952
22,NCI-H1355,0.677
23,NCI-H2405,0.815
24,NCI-H1437,0.609
25,H3255,0.445
26,NCI-H2347,0.675
27,NCI-H1975,0.795

# Same assay, conditions: first compound 50 µM
row,Cell Line,relative viability
1,HARA,0.343
2,LCLC-103H,0.646
3,LXF-289,0.891
4,NCI-H358,0.552
5,NCI-H322M,0.658
6,LC-2-ad,0.55
7,HCC-827,0.36
8,HCC-15,0.424
9,HOP-62,0.28
10,NCI-H460,0.343
11,LU99A,0.205
12,NCI-H2085,0.627
13,A-427,0.295
14,NCI-H838,0.411
15,NCI-H1792,0.341
16,NCI-H596,0.586
17,NCI-H3122,0.504
18,BEN,0.779
19,NCI-H1395,0.406
20,201T,0.81
21,NCI-H1993,1.01
22,NCI-H1355,0.503
23,NCI-H2405,0.777
24,NCI-H1437,0.301
25,H3255,0.362
26,NCI-H2347,0.437
27,NCI-H1975,0.849
